Where two headings read alike, the source gives them in different places.
Legend:
E. coli (WT) = system: E. coli (WT)
Description: (§1) The MIC assay is a technique used to determine the lowest concentration of a particular antibiotic needed to inhibit visible growth of bacteria. In this method, two fold serial dilutions of the compound were prepared in broth media. An inoculum of overnight bacterial cultures will be prepared in the same broth medium. The serial dilution tubes will be inoculated with 0.025 ml of undiluted over-night culture (1:100), a 1×10-2 dilution (1:10,000), or a 1×10-4 dilution (1:1,000,000) of bacterial suspension. Results were recorded after 24 hour incubation at 35° C. without shaking by measuring OD600. The MIC is determined by the lowest concentration of compound where no growth is visible.

P. aeruginosa 4858 = system: P. aeruginosa 4858
Description: as §1

S. aureus (8324-5) = system: S. aureus (8324-5)
Description: as §1

P. aeruginosa 4990 = system: P. aeruginosa 4990
Description: as §1

Streptococcus pneumoniae = conditions: Based on SBA agar (not confirmatory)
Description: as §1

S. aureus (Col) = system: S. aureus (Col)
Description: as §1

B. subtilis = system: B. subtilis
Description: as §1

P. aeruginosa 4961 = system: P. aeruginosa 4961
Description: as §1

E. coli (K12) = system: E. coli (K12)
Description: as §1

[1] = system: Staphylococcus aureus USA300; conditions: 200 mg/kg UV-4B orally TID for 10 days, from 3 days before IP challenge; water control 30%
Description: The challenge inoculum included 6.13e4 cfu USA300+3% Hog mucin which causes bacteremia/sepsis within 24-72 h. […] The mice used were 6-8 week old female BALB/c mice in groups of 10. One group of 5 mice was also included to examine the potential toxicity of 3% hog mucin. Endpoint was day 10 post infection, death, or euthanasia Animals displaying severe illness as determined by >30% weight loss, extreme lethargy, or paralysis were euthanized. Observation included daily weight, health checks, and temperatures starting with the initiation of dosing until 10 days post challenge.

COCCCCCCCCCN1C[C@H](O)[C@@H](O)[C@H](O)[C@H]1CO.Cl [UV-4B, hydrochloric acid salt of N-(9-Methoxynonyl)deoxynojirimycin]
MIC (E. coli (WT); Table 3): 5000 µg/mL
visible growth (E. coli (WT); UV-4B 0.02 mg/ml): +
visible growth (E. coli (WT); UV-4B 0.04 mg/ml): +
visible growth (E. coli (WT); UV-4B 0.08 mg/ml): +
visible growth (E. coli (WT); UV-4B 0.16 mg/ml): +
visible growth (E. coli (WT); UV-4B 0.31 mg/ml): +
visible growth (E. coli (WT); UV-4B 0.63 mg/ml): +
visible growth (E. coli (WT); UV-4B 2.50 mg/ml): +
visible growth (E. coli (WT); UV-4B 5 mg/ml): −
visible growth (E. coli (WT); UV-4B 10 mg/ml): −
MIC (P. aeruginosa 4858; Table 3): 5000 µg/mL
MIC (P. aeruginosa 4858; Table 4): 2500 µg/mL
growth (OD600) (P. aeruginosa 4858; Table 4, 0.02 mg/ml): + (+ OD600 <0.05)
growth (OD600) (P. aeruginosa 4858; Table 4, 0.04 mg/ml): + (+ OD600 <0.05)
growth (OD600) (P. aeruginosa 4858; Table 4, 0.08 mg/ml): + (+ OD600 <0.05)
growth (OD600) (P. aeruginosa 4858; Table 4, 0.16 mg/ml): + (+ OD600 <0.05)
growth (OD600) (P. aeruginosa 4858; Table 4, 0.31 mg/ml): + (+ OD600 <0.05)
growth (OD600) (P. aeruginosa 4858; Table 4, 0.63 mg/ml): + (+ OD600 <0.05)
growth (OD600) (P. aeruginosa 4858; Table 4, 2.50 mg/ml): − (− OD600 >0.05)
growth (OD600) (P. aeruginosa 4858; Table 4, 5 mg/ml): − (− OD600 >0.05)
growth (OD600) (P. aeruginosa 4858; Table 4, 10 mg/ml): − (− OD600 >0.05)
growth (OD600) (P. aeruginosa 4858; Table 4, 20 mg/ml): − (− OD600 >0.05)
visible growth (P. aeruginosa 4858; UV-4B 0.63 mg/ml): +
visible growth (P. aeruginosa 4858; UV-4B 2.50 mg/ml): +
visible growth (P. aeruginosa 4858; UV-4B 5 mg/ml): −
visible growth (P. aeruginosa 4858; UV-4B 10 mg/ml): −
visible growth (P. aeruginosa 4858; UV-4B 20 mg/ml): −
MIC (S. aureus (8324-5); Table 3, two independent tests): 2500 µg/mL
MIC (S. aureus (8324-5); Table 4): 1250 µg/mL
growth (OD600) (S. aureus (8324-5); Table 4, 0.02 mg/ml): + (+ OD600 <0.05)
growth (OD600) (S. aureus (8324-5); Table 4, 0.04 mg/ml): + (+ OD600 <0.05)
growth (OD600) (S. aureus (8324-5); Table 4, 0.08 mg/ml): + (+ OD600 <0.05)
growth (OD600) (S. aureus (8324-5); Table 4, 0.16 mg/ml): + (+ OD600 <0.05)
growth (OD600) (S. aureus (8324-5); Table 4, 0.31 mg/ml): + (+ OD600 <0.05)
growth (OD600) (S. aureus (8324-5); Table 4, 0.63 mg/ml): + (+ OD600 <0.05)
growth (OD600) (S. aureus (8324-5); Table 4, 2.50 mg/ml): − (− OD600 >0.05)
growth (OD600) (S. aureus (8324-5); Table 4, 5 mg/ml): − (− OD600 >0.05)
growth (OD600) (S. aureus (8324-5); Table 4, 10 mg/ml): − (− OD600 >0.05)
growth (OD600) (S. aureus (8324-5); Table 4, 20 mg/ml): − (− OD600 >0.05)
visible growth (S. aureus (8324-5); UV-4B 0.04 mg/ml): +
visible growth (S. aureus (8324-5); UV-4B 0.08 mg/ml): +
visible growth (S. aureus (8324-5); UV-4B 0.16 mg/ml): +
visible growth (S. aureus (8324-5); UV-4B 0.31 mg/ml): +
visible growth (S. aureus (8324-5); UV-4B 0.63 mg/ml): +
visible growth (S. aureus (8324-5); UV-4B 2.50 mg/ml): −
visible growth (S. aureus (8324-5); UV-4B 5 mg/ml): −
visible growth (S. aureus (8324-5); UV-4B 10 mg/ml): −
visible growth (S. aureus (8324-5); UV-4B 20 mg/ml): −
MIC (P. aeruginosa 4990; Table 3): 5000 µg/mL
visible growth (P. aeruginosa 4990; UV-4B 0.04 mg/ml): +
visible growth (P. aeruginosa 4990; UV-4B 0.08 mg/ml): +
visible growth (P. aeruginosa 4990; UV-4B 0.16 mg/ml): +
visible growth (P. aeruginosa 4990; UV-4B 0.31 mg/ml): +
visible growth (P. aeruginosa 4990; UV-4B 0.63 mg/ml): +
visible growth (P. aeruginosa 4990; UV-4B 2.50 mg/ml): +
visible growth (P. aeruginosa 4990; UV-4B 5 mg/ml): −
visible growth (P. aeruginosa 4990; UV-4B 10 mg/ml): −
visible growth (P. aeruginosa 4990; UV-4B 20 mg/ml): −
MIC (Streptococcus pneumoniae; Table 3): 10000 µg/mL
visible growth (Streptococcus pneumoniae; UV-4B 0.04 mg/ml): +
visible growth (Streptococcus pneumoniae; UV-4B 0.08 mg/ml): +
visible growth (Streptococcus pneumoniae; UV-4B 0.16 mg/ml): +
visible growth (Streptococcus pneumoniae; UV-4B 0.31 mg/ml): +
visible growth (Streptococcus pneumoniae; UV-4B 0.63 mg/ml): +
visible growth (Streptococcus pneumoniae; UV-4B 2.50 mg/ml): +
visible growth (Streptococcus pneumoniae; UV-4B 5 mg/ml): +
visible growth (Streptococcus pneumoniae; UV-4B 10 mg/ml): −
MIC (S. aureus (Col); Table 3): 2500 µg/mL
MIC (S. aureus (Col); Table 4): 625 µg/mL
growth (OD600) (S. aureus (Col); Table 4, 0.02 mg/ml): + (+ OD600 <0.05)
growth (OD600) (S. aureus (Col); Table 4, 0.04 mg/ml): + (+ OD600 <0.05)
growth (OD600) (S. aureus (Col); Table 4, 0.08 mg/ml): + (+ OD600 <0.05)
growth (OD600) (S. aureus (Col); Table 4, 0.16 mg/ml): + (+ OD600 <0.05)
growth (OD600) (S. aureus (Col); Table 4, 0.31 mg/ml): + (+ OD600 <0.05)
growth (OD600) (S. aureus (Col); Table 4, 0.63 mg/ml): − (− OD600 >0.05)
growth (OD600) (S. aureus (Col); Table 4, 2.50 mg/ml): − (− OD600 >0.05)
growth (OD600) (S. aureus (Col); Table 4, 5 mg/ml): − (− OD600 >0.05)
growth (OD600) (S. aureus (Col); Table 4, 10 mg/ml): − (− OD600 >0.05)
growth (OD600) (S. aureus (Col); Table 4, 20 mg/ml): − (− OD600 >0.05)
visible growth (S. aureus (Col); UV-4B 0.02 mg/ml): +
visible growth (S. aureus (Col); UV-4B 0.04 mg/ml): +
visible growth (S. aureus (Col); UV-4B 0.08 mg/ml): +
visible growth (S. aureus (Col); UV-4B 0.16 mg/ml): +
visible growth (S. aureus (Col); UV-4B 0.31 mg/ml): +
visible growth (S. aureus (Col); UV-4B 0.63 mg/ml): +
visible growth (S. aureus (Col); UV-4B 2.50 mg/ml): −
visible growth (S. aureus (Col); UV-4B 5 mg/ml): −
visible growth (S. aureus (Col); UV-4B 10 mg/ml): −
MIC (B. subtilis; Table 3): 2500 µg/mL
MIC (B. subtilis; Table 4): 625 µg/mL
growth (OD600) (B. subtilis; Table 4, 0.02 mg/ml): + (+ OD600 <0.05)
growth (OD600) (B. subtilis; Table 4, 0.04 mg/ml): + (+ OD600 <0.05)
growth (OD600) (B. subtilis; Table 4, 0.08 mg/ml): + (+ OD600 <0.05)
growth (OD600) (B. subtilis; Table 4, 0.16 mg/ml): + (+ OD600 <0.05)
growth (OD600) (B. subtilis; Table 4, 0.31 mg/ml): + (+ OD600 <0.05)
growth (OD600) (B. subtilis; Table 4, 0.63 mg/ml): − (− OD600 >0.05)
growth (OD600) (B. subtilis; Table 4, 2.50 mg/ml): − (− OD600 >0.05)
growth (OD600) (B. subtilis; Table 4, 5 mg/ml): − (− OD600 >0.05)
growth (OD600) (B. subtilis; Table 4, 10 mg/ml): − (− OD600 >0.05)
growth (OD600) (B. subtilis; Table 4, 20 mg/ml): − (− OD600 >0.05)
visible growth (B. subtilis; UV-4B 0.02 mg/ml): +
visible growth (B. subtilis; UV-4B 0.04 mg/ml): +
visible growth (B. subtilis; UV-4B 0.08 mg/ml): +
visible growth (B. subtilis; UV-4B 0.16 mg/ml): +
visible growth (B. subtilis; UV-4B 0.31 mg/ml): +
visible growth (B. subtilis; UV-4B 0.63 mg/ml): +
visible growth (B. subtilis; UV-4B 2.50 mg/ml): −
visible growth (B. subtilis; UV-4B 5 mg/ml): −
visible growth (B. subtilis; UV-4B 10 mg/ml): −
MIC (P. aeruginosa 4961; Table 3): 5000 µg/mL
visible growth (P. aeruginosa 4961; UV-4B 0.04 mg/ml): +
visible growth (P. aeruginosa 4961; UV-4B 0.08 mg/ml): +
visible growth (P. aeruginosa 4961; UV-4B 0.16 mg/ml): +
visible growth (P. aeruginosa 4961; UV-4B 0.31 mg/ml): +
visible growth (P. aeruginosa 4961; UV-4B 0.63 mg/ml): +
visible growth (P. aeruginosa 4961; UV-4B 2.50 mg/ml): +
visible growth (P. aeruginosa 4961; UV-4B 5 mg/ml): −
visible growth (P. aeruginosa 4961; UV-4B 10 mg/ml): −
visible growth (P. aeruginosa 4961; UV-4B 20 mg/ml): −
MIC (E. coli (K12); Table 3): 5000 µg/mL
visible growth (E. coli (K12); UV-4B 0.04 mg/ml): +
visible growth (E. coli (K12); UV-4B 0.08 mg/ml): +
visible growth (E. coli (K12); UV-4B 0.16 mg/ml): +
visible growth (E. coli (K12); UV-4B 0.31 mg/ml): +
visible growth (E. coli (K12); UV-4B 0.63 mg/ml): +
visible growth (E. coli (K12); UV-4B 2.50 mg/ml): +
visible growth (E. coli (K12); UV-4B 5 mg/ml): −
visible growth (E. coli (K12); UV-4B 10 mg/ml): −
visible growth (E. coli (K12); UV-4B 20 mg/ml): −
survival [1]: 80%

Source: patent US9623016B2, “Antibacterial compounds” (Emergent Virology LLC, priority 2013, dated 2017)
